Reference: patent publication USRE39088E1, “Amide compounds and use of the same” (Japan Tobacco, Inc., priority 1995, dated 2006)
Counter-ions that a name gives are not always drawn.

Assays:
IL-8 = experiment: Suppression of production of inflammatory cytokines: IL-8 in LPS-stimulated human peripheral blood monocytes (ELISA); format: cell-based; conditions: supernatant 20 hours after LPS
Procedure: Suppression of production of inflammatory cytokines
Thirty ml of human peripheral blood added with heparin was placed on Ficol-Paque (15 ml), and centrifuged at 400 G for 40 minutes at room temperature. The obtained monocyte fraction layers were collected and washed three times with E-MEM medium. The cells were adjusted to a final concentration of 0.5×10^5 cells/800 μl with RPMI-1640 medium containing 5% bovine fetal serum (2-mercaptoethanol), and seeded in a 24 well plant by 800 μl. A test sample (100 μl) was added and 100 μl of lipopolysarcharide (LPS, 100 μg/ml) was added one hour later. The supernatant was taken at 20 hours after stimulation with LPS, and amounts of various cytokines were determined using an ELISA kit.

ALT in blood = experiment: Suppression of LPS/D-galactosamine-induced hepatitis; format: in vivo; conditions: Mus musculus, iv; dose 10 mg/kg, tail vein, 10 minutes before LPS/D-galactosamine; ALT in blood at 6 hours, male C57BL/6 mice
Procedure: Suppression of LPS/D-galactosamine-induced hepatitis
LPS (5 μg/kg)D-galactosamine (500 mg/kg) in physiological saline was intraperitoneally injected to male C57BL/6 mice to induce hepatitis. Six hours after the injection of LPS/D-galactosamine in physiological saline, blood was taken from the mice orbital venosus plexus. Plasma was separated from the blood, and ALT in blood was determined by a biochemical analyzer. The test sample was administered from the tail vein at 10 minutes before the injection of LPS/D-galactosamine in physiological saline, and the degree of suppression was investigated. The suppression by the test sample is shown in the ratio relative to the suppression in the control group.
Suppression (%)=100-(ALT amount of group treated with test sample/ALT amount of control group)×100

SMILES | IC50 (IL-8; Homo sapiens, Monocyte, 20 h) [µM] | also measured
CN1CCC(OC(=O)[C@H](Cc2ccccc2)NC(=O)c2cc(Cl)c(OCCCCN)c(Cl)c2O)CC1 [Example 48] | 0.2 | 
CN(C)CCCCCc1c(Cl)cc(C(=O)N[C@@H](Cc2ccccc2)C(=O)O)c(O)c1Cl [Example 133] | 0.2 | 
CCOC(=O)C(Cc1ccccc1)NC(=O)c1cc(Cl)c(OCCC2CCN(C)CC2)c(Cl)c1O (centres unmarked) [Example 70] | 0.006 | 
CCOC(=O)C(Cc1ccccc1)NC(=O)c1cc(Cl)c(CCCC2CCNCC2)c(Cl)c1O (centres unmarked) [Example 101] | 0.003 | 
CCNCCCCOc1c(Cl)cc(C(=O)N[C@@H](Cc2ccccc2)C(=O)OC)c(O)c1Cl [Example 16] | 0.03 | 
CNCCCCOc1c(Cl)cc(C(=O)N[C@@H](Cc2ccccc2)C(=O)NO)c(O)c1Cl [Example 143, N-[3,5-Dichloro-2-hydroxy-4-(4-methylaminobutoxy)benzoyl]-L-phenylalanylhydroxyamide] |  | IC50 (IL-8): 3 µM
CNCCCCCc1c(Cl)cc(C(=O)N[C@@H](Cc2ccccc2)C(=O)OC)c(O)c1Cl [Example 91, N-[3,5-Dichloro-2-hydroxy-4-(5-methylaminopentyl)benzoyl]-L-phenylalanine methyl ester hydrochloride] | 0.001 | 
COC(=O)[C@H](Cc1ccccc1)NC(=O)c1cc(Cl)c(OCCN2CCN(C)CC2)c(Cl)c1O [Example 58] | 0.02 | 
CCOC(=O)C(Cc1ccccc1)NC(=O)c1cc(Cl)c(CCCN2CCC(N)CC2)c(Cl)c1O (centres unmarked) [Example 103] | 0.7 | 
CCOC(=O)C(Cc1ccccc1)NC(=O)c1cc(Cl)c(CCCC2CCN(C)CC2)c(Cl)c1O (centres unmarked) [Example 100] | 0.001 | 
CCOC(=O)C(Cc1ccccc1)NC(=O)c1cc(Cl)c(OCCN2CCNCC2)c(Cl)c1O (centres unmarked) [Example 64] | 0.05 | 
CCOC(=O)C(Cc1ccccc1)NC(=O)c1cc(Cl)c(OC(=O)C2(CC)CCNCC2)cc1O (centres unmarked) [Example 156] | 2 | 
CC(C)COC(=O)[C@H](Cc1ccccc1)NC(=O)c1cc(Cl)c(OCCCCN)c(Cl)c1O [Example 28] | < 0.01 | 
COC(=O)[C@H](Cc1ccccc1)NC(=O)c1cc2cccc(OCCCCN)c2cc1O [Example 146, (2S)-3-Phenyl-2-[5-(4-aminobutoxy)-3-hydroxy-2-naphthoylamino]-propionic acid methyl ester hydrochloride] | 5 | 
CNCCCCOc1c(Cl)cc(C(=O)N[C@@H](Cc2ccccc2)C(=O)OCCN(C(C)C)C(C)C)c(O)c1Cl [Example 85] | 0.07 | 
CC(C)(C)OC(=O)[C@H](Cc1ccccc1)NC(=O)c1cc(Cl)c(OCCCCN)c(Cl)c1O [Example 30] | 0.6 | 
NCCCCOc1c(Cl)cc(C(=O)N[C@@H](Cc2ccccc2)C(=O)Nc2ccc(F)cc2)c(O)c1Cl [Example 141] | 3 | 
Cc1noc([C@H](Cc2ccccc2)NC(=O)c2cc(Cl)c(OCCCCN)c(Cl)c2O)n1 [Example 144, N-[4-(4-Aminobutoxy)-3,5-dichloro-2-hydroxybenzoyl]-1-(3-methyl-1,2,4-oxadizaol-5-yl)-2-phenylethylamine hydrochloride] | 29 | 
CN1CCN(CCOc2c(Cl)cc(C(=O)N[C@@H](Cc3ccccc3)C(=O)O)c(O)c2Cl)CC1 [Example 134] |  | IC50 (IL-8; Monocyte): 0.2 µM
CCOC(=O)C(Cc1ccccc1)NC(=O)c1cc(C)c(OCCCCNC)c(C)c1O (centres unmarked) [Example 77] | 3 | 
CNCCCCOc1ccc(C(=O)N[C@@H](Cc2ccccc2)C(=O)OC)c(O)c1Cl [Example 7] | 8 | 
CCOC(=O)C(Cc1ccccc1)NC(=O)c1cc(Cl)c(CCCN2CCNCC2)c(Cl)c1O (centres unmarked) [Example 102] | 0.002 | 
COC(=O)[C@H](Cc1ccccc1)NC(=O)c1cc(Cl)c(OCCCCO)c(Cl)c1O [Example 87] | 0.2 | 
COC(=O)[C@H](Cc1ccccc1)NC(=O)c1cc(Cl)c(OCCN2CCN[C@@H](C)C2)c(Cl)c1OC(=O)c1ccccc1 [Example 123] |  | inhibition in vivo at 10 mg/kg (ALT in blood): 41%
CNCCCCCc1ccc(C(=O)N[C@@H](Cc2ccccc2)C(=O)OC)c(O)c1 [Example 89] | 0.6 | 
COC(=O)[C@H](Cc1ccccc1)NC(=O)c1cc(Cl)c(OCCN2CCN(C)C(C)C2)c(Cl)c1O (some centres unmarked) [Example 63] | 0.1 | 
CCOC(=O)[C@H](Cc1ccccc1)NC(=O)c1ccc(-c2ccc(OCCCCNC)cc2)cc1 [Example 147, N-[4-[4-(4-Methylaminobutoxy)phenyl]benzoyl]-L-phenylalanine ethyl ester hydrochloride] | 2 | 
CC(OC(=O)[C@H](Cc1ccccc1)NC(=O)c1cc(Cl)c(OCCCCN)c(Cl)c1O)N1CCNCC1 (some centres unmarked) [Example 56] | 4 | 
CCOC(=O)C(Cc1ccccc1)NC(=O)c1cc(Cl)c(OCCCCNC)cc1O (centres unmarked) [Example 71] | 0.04 | 
